Literature values, collected in article PMC8513935.

Assays:
[1] = derived by the authors as gas->solvent minus gas->water (a hypothetical dry solvent; the ESI), not a two-phase measurement
[2] = log P octanol/water from commercial databases, averaged (the ESI); conditions: Octanol (wet), 25 C
[3] = experimental, compiled by the authors from the literature (the ESI cites the sources)

## CO
[1]; 1,2-Dichloroethane, 25 C
  log K of transfer, water to solvent: -1.58 log10 K
[1]; 2-Methylpropan-1-ol, 25 C
  log K of transfer, water to solvent: -0.58 log10 K
[1]; 2-Methylpropan-2-ol, 25 C
  log K of transfer, water to solvent: -0.35 log10 K
[1]; 3-Methylbutan-1-ol, 25 C
  log K of transfer, water to solvent: -0.672 log10 K
[1]; Acetone, 25 C
  log K of transfer, water to solvent: -0.71 log10 K
[1]; Acetonitrile, 25 C
  log K of transfer, water to solvent: -0.81 log10 K
[1]; Benzene, 25 C
  log K of transfer, water to solvent: -1.85 log10 K
[1]; Butan-1-ol, 25 C
  log K of transfer, water to solvent: -0.72 log10 K
[1]; Butan-2-ol, 25 C
  log K of transfer, water to solvent: -0.45 log10 K
[1]; Butanone, 25 C
  log K of transfer, water to solvent: -0.93 log10 K
[1]; Butyronitrile, 25 C
  log K of transfer, water to solvent: -1.06 log10 K
[1]; CCl4, 25 C
  log K of transfer, water to solvent: -2.24 log10 K
[1]; Chlorobenzene, 25 C
  log K of transfer, water to solvent: -2.07 log10 K
[1]; Chloroform, 25 C
  log K of transfer, water to solvent: -1.33 log10 K
[1]; Cyclohexane, 25 C
  log K of transfer, water to solvent: -2.77 log10 K
[1]; Decan-1-ol, 25 C
  log K of transfer, water to solvent: -1.21 log10 K
[1]; Di-n-butyl ether, 25 C
  log K of transfer, water to solvent: -1.8 log10 K
[1]; Dichloromethane, 25 C
  log K of transfer, water to solvent: -1.45 log10 K
[1]; Diethyl Ether, 25 C
  log K of transfer, water to solvent: -1.26 log10 K
[1]; Ethanol, 25 C
  log K of transfer, water to solvent: -0.34 log10 K
[1]; Hexadecane, 25 C
  log K of transfer, water to solvent: -2.77 log10 K
[1]; Hexane, 25 C
  log K of transfer, water to solvent: -2.59 log10 K
[1]; Methanol, 25 C
  log K of transfer, water to solvent: -0.14 log10 K
[1]; Octan-1-ol(dry), 25 C
  log K of transfer, water to solvent: -0.9 log10 K
[1]; Pentan-1-ol, 25 C
  log K of transfer, water to solvent: -0.67 log10 K
[1]; Propan-1-ol, 25 C
  log K of transfer, water to solvent: -0.59 log10 K
[1]; Propan-2-ol, 25 C
  log K of transfer, water to solvent: -0.46 log10 K
[1]; Tetrahydrofuran, 25 C
  log K of transfer, water to solvent: -0.9 log10 K
[1]; Toluene, 25 C
  log K of transfer, water to solvent: -2.14 log10 K
[2]
  log K of transfer, water to solvent: -0.755 log10 K

## CCCCCCCCCCCCCC
[2]
  log K of transfer, water to solvent: 8 log10 K

## CCCC
[3]; 2-Methylpropan-1-ol, 25 C
  log K of transfer, gas to solvent: 1.49 log10 K
[3]; 2-Methylpropan-2-ol, 25 C
  log K of transfer, gas to solvent: 1.52 log10 K
[3]; 3-Methylbutan-1-ol, 25 C
  log K of transfer, gas to solvent: 1.48 log10 K
[3]; Butan-1-ol, 25 C
  log K of transfer, gas to solvent: 1.37 log10 K
[3]; Butanone, 25 C
  log K of transfer, gas to solvent: 1.69 log10 K
[3]; CCl4, 25 C
  log K of transfer, gas to solvent: 1.96 log10 K
[3]; Chlorobenzene, 25 C
  log K of transfer, gas to solvent: 1.7 log10 K
[3]; Cyclohexane, 25 C
  log K of transfer, gas to solvent: 2.1 log10 K
[3]; Di-n-butyl ether, 25 C
  log K of transfer, gas to solvent: 1.79 log10 K
[3]; Ethanol, 25 C
  log K of transfer, gas to solvent: 1.4 log10 K
[3]; Heptan-1-ol, 25 C
  log K of transfer, gas to solvent: 1.43 log10 K
[3]; Hexadecane, 25 C
  log K of transfer, gas to solvent: 1.61 log10 K
[3]; Hexane, 25 C
  log K of transfer, gas to solvent: 1.87 log10 K
[3]; Methanol, 25 C
  log K of transfer, gas to solvent: 1.27 log10 K
[3]; Octan-1-ol, 25 C
  log K of transfer, gas to solvent: 1.53 log10 K
[3]; Pentan-1-ol, 25 C
  log K of transfer, gas to solvent: 1.49 log10 K
[3]; Propan-1-ol, 25 C
  log K of transfer, gas to solvent: 1.45 log10 K
[3]; Propan-2-ol, 25 C
  log K of transfer, gas to solvent: 1.49 log10 K
[3]; Propanone, 25 C
  log K of transfer, gas to solvent: 1.56 log10 K
[3]; Water, 25 C
  log K of transfer, gas to solvent: -1.52 log10 K
[2]
  log K of transfer, water to solvent: 2.89 log10 K

## C1CCNC1
[2]
  log K of transfer, water to solvent: 0.465 log10 K

## CC1CCCCC1
[3]; Butanone, 25 C
  log K of transfer, gas to solvent: 3.02 log10 K
[3]; Butyronitrile, 25 C
  log K of transfer, gas to solvent: 2.99 log10 K
[3]; Heptan-1-ol, 25 C
  log K of transfer, gas to solvent: 3.05 log10 K
[3]; Hexadecane, 25 C
  log K of transfer, gas to solvent: 3.32 log10 K
[3]; Octan-1-ol, 25 C
  log K of transfer, gas to solvent: 3.05 log10 K
[3]; Propan-2-ol, 25 C
  log K of transfer, gas to solvent: 2.78 log10 K
[3]; Propanone, 25 C
  log K of transfer, gas to solvent: 2.88 log10 K
[3]; Propionitrile, 25 C
  log K of transfer, gas to solvent: 2.85 log10 K
[3]; Tetrahydrofuran, 25 C
  log K of transfer, gas to solvent: 3.42 log10 K
[3]; Water, 25 C
  log K of transfer, gas to solvent: -1.25 log10 K
[2]
  log K of transfer, water to solvent: 3.88 log10 K

## Fc1ccccc1
[1]; CCl4, 25 C
  log K of transfer, water to solvent: 2.08 log10 K
[1]; Chloroform, 25 C
  log K of transfer, water to solvent: 2.85 log10 K
[1]; Cyclohexane, 25 C
  log K of transfer, water to solvent: 2.22 log10 K
[1]; Hexadecane, 25 C
  log K of transfer, water to solvent: 2.2 log10 K
[1]; Hexane, 25 C
  log K of transfer, water to solvent: 2.45 log10 K
[1]; Tetrahydrofuran, 25 C
  log K of transfer, water to solvent: 3.03 log10 K
[3]; CCl4, 25 C
  log K of transfer, gas to solvent: 2.67 log10 K
[3]; Chloroform, 25 C
  log K of transfer, gas to solvent: 3.44 log10 K
[3]; Cyclohexane, 25 C
  log K of transfer, gas to solvent: 2.81 log10 K
[3]; Hexadecane, 25 C
  log K of transfer, gas to solvent: 2.79 log10 K
[3]; Hexane, 25 C
  log K of transfer, gas to solvent: 3.04 log10 K
[3]; Tetrahydrofuran, 25 C
  log K of transfer, gas to solvent: 3.62 log10 K
[3]; Water, 25 C
  log K of transfer, gas to solvent: 0.59 log10 K

## CCCCCCN
[1]; Hexadecane, 25 C
  log K of transfer, water to solvent: 0.755 log10 K
[3]; Hexadecane, 25 C
  log K of transfer, gas to solvent: 3.65 log10 K
[3]; Water, 25 C
  log K of transfer, gas to solvent: 2.9 log10 K

## C
[1]; Acetone, 25 C
  log K of transfer, water to solvent: 1.24 log10 K
[1]; Butan-1-ol, 25 C
  log K of transfer, water to solvent: 1.15 log10 K
[1]; CCl4, 25 C
  log K of transfer, water to solvent: 1.32 log10 K
[1]; Chlorobenzene, 25 C
  log K of transfer, water to solvent: 1.13 log10 K
[1]; Decan-1-ol, 25 C
  log K of transfer, water to solvent: 1.05 log10 K
[1]; Diethyl Ether, 25 C
  log K of transfer, water to solvent: 1.48 log10 K
[1]; Ethanol, 25 C
  log K of transfer, water to solvent: 1.17 log10 K
[1]; Heptan-1-ol, 25 C
  log K of transfer, water to solvent: 1.11 log10 K
[1]; Hexadecane, 25 C
  log K of transfer, water to solvent: 1.14 log10 K
[1]; Hexan-1-ol, 25 C
  log K of transfer, water to solvent: 1.12 log10 K
[1]; Hexane, 25 C
  log K of transfer, water to solvent: 1.44 log10 K
[1]; Methanol, 25 C
  log K of transfer, water to solvent: 1.19 log10 K
[1]; Octan-1-ol(dry), 25 C
  log K of transfer, water to solvent: 1.08 log10 K
[1]; Pentan-1-ol, 25 C
  log K of transfer, water to solvent: 1.13 log10 K
[1]; Perfluoroalkane, 25 C
  log K of transfer, water to solvent: 1.42 log10 K
[1]; Propan-1-ol, 25 C
  log K of transfer, water to solvent: 1.17 log10 K
[1]; Propan-2-ol, 25 C
  log K of transfer, water to solvent: 1.13 log10 K
[1]; Tetrahydrofuran, 25 C
  log K of transfer, water to solvent: 1.28 log10 K
[2]
  log K of transfer, water to solvent: 1.09 log10 K

## CCSC
[1]; Hexadecane, 25 C
  log K of transfer, water to solvent: 1.27 log10 K
[3]; Hexadecane, 25 C
  log K of transfer, gas to solvent: 2.37 log10 K
[3]; Water, 25 C
  log K of transfer, gas to solvent: 1.1 log10 K

## CC(C)(C)C
[1]; Hexadecane, 25 C
  log K of transfer, water to solvent: 3.66 log10 K
[1]; Hexane, 25 C
  log K of transfer, water to solvent: 3.87 log10 K
[1]; Methanol, 25 C
  log K of transfer, water to solvent: 3.24 log10 K
[3]; Hexadecane, 25 C
  log K of transfer, gas to solvent: 1.82 log10 K
[3]; Hexane, 25 C
  log K of transfer, gas to solvent: 2.03 log10 K
[3]; Methanol, 25 C
  log K of transfer, gas to solvent: 1.4 log10 K
[3]; Water, 25 C
  log K of transfer, gas to solvent: -1.84 log10 K
